# Reference: the supplement of paper PMC10307832
# Key:
# Test in all cases: relative viability (nuclei count vs DMSO), 5 days (fraction); higher = more cells survive
# Pazopanib + Crizotinib = compound: Cc1ccc(Nc2nccc(N(C)c3ccc4c(C)n(C)nc4c3)n2)cc1S(N)(=O)=O [Pazopanib] + C[C@@H](Oc1cc(-c2cnn(C3CCNCC3)c2)cnc1N)c1c(Cl)ccc(F)c1Cl [Crizotinib] (partner 1 µM)
# Summary of the method: (§1)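 Each reported value is a median over duplicate plates. It expresses relative viability: treated-well nuclei count divided by vehicle-well nuclei count. Lung cancer cell lines in 1536-well plates were dosed by pin tool a day after seeding, alone with one drug or with a fixed anchor-drug dose plus five library-drug doses (not always all listed) in √10 steps, and nuclei were counted after 5 days.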
# Ponatinib + Decitabine = compound: Cc1ccc(C(=O)Nc2ccc(CN3CCN(C)CC3)c(C(F)(F)F)c2)cc1C#Cc1cnc2cccnn12 [Ponatinib] + Nc1ncn([C@H]2C[C@H](O)[C@@H](CO)O2)c(=O)n1 [Decitabine] (partner 2 µM)
# Summary of the method: as §1
# Pazopanib + Trametinib = compound: Cc1ccc(Nc2nccc(N(C)c3ccc4c(C)n(C)nc4c3)n2)cc1S(N)(=O)=O [Pazopanib] + CC(=O)Nc1cccc(-n2c(=O)n(C3CC3)c(=O)c3c(Nc4ccc(I)cc4F)n(C)c(=O)c(C)c32)c1 [Trametinib] (partner 0.02 µM)
# Summary of the method: as §1
# Ponatinib + Pictilisib = compound: Cc1ccc(C(=O)Nc2ccc(CN3CCN(C)CC3)c(C(F)(F)F)c2)cc1C#Cc1cnc2cccnn12 [Ponatinib] + CS(=O)(=O)N1CCN(Cc2cc3nc(-c4cccc5[nH]ncc45)nc(N4CCOCC4)c3s2)CC1 [Pictilisib] (partner 1 µM)
# Summary of the method: as §1
# Ponatinib + Palbociclib = compound: Cc1ccc(C(=O)Nc2ccc(CN3CCN(C)CC3)c(C(F)(F)F)c2)cc1C#Cc1cnc2cccnn12 [Ponatinib] + CC(=O)c1c(C)c2cnc(Nc3ccc(N4CCNCC4)cn3)nc2n(C2CCCC2)c1=O [Palbociclib] (partner 0.5 µM)
# Summary of the method: as §1
cell line,measurement,setting,value
UMC-11,relative viability,Pazopanib + Crizotinib; first compound 0.01 µM,0.625
same,relative viability,Pazopanib + Crizotinib; first compound 0.03162 µM,0.716
same,relative viability,Pazopanib + Crizotinib; first compound 0.1 µM,0.708
same,relative viability,Pazopanib + Crizotinib; first compound 0.3162 µM,0.675
same,relative viability,Pazopanib + Crizotinib; first compound 1 µM,0.588
same,relative viability,Ponatinib + Decitabine; first compound 0.006325 µM,0.595
same,relative viability,Ponatinib + Decitabine; first compound 0.06325 µM,0.709
same,relative viability,Ponatinib + Decitabine; first compound 0.2 µM,0.575
same,relative viability,Pazopanib + Trametinib; first compound 0.01 µM,0.552
same,relative viability,Pazopanib + Trametinib; first compound 0.03162 µM,0.732
same,relative viability,Pazopanib + Trametinib; first compound 0.1 µM,0.672
same,relative viability,Pazopanib + Trametinib; first compound 0.3162 µM,0.756
same,relative viability,Pazopanib + Trametinib; first compound 1 µM,0.846
same,relative viability,Ponatinib + Pictilisib; first compound 0.002 µM,0.809
same,relative viability,Ponatinib + Pictilisib; first compound 0.006325 µM,0.933
same,relative viability,Ponatinib + Pictilisib; first compound 0.06325 µM,0.766
same,relative viability,Ponatinib + Pictilisib; first compound 0.2 µM,0.831
same,relative viability,Ponatinib + Palbociclib; first compound 0.006325 µM,0.312
same,relative viability,Ponatinib + Palbociclib; first compound 0.06325 µM,0.287
same,relative viability,Ponatinib + Palbociclib; first compound 0.2 µM,0.346
